This note sets out measurements from patent publication US11466011B2, “Compounds and their use as inhibitors of N-myristoyl transferase” (Imperial College Innovations Limited, priority 2015, dated 2022).

The target of the assay is Trypanosoma brucei (Tb) N-myristoyl transferase (Trypanosoma brucei brucei, UniProt Q388H8). As to the kind of experiment: Fluorescence-based NMT assay (a), adapted version, TbNMT. Format: biochemical.
Sequence of Trypanosoma brucei (Tb) N-myristoyl transferase (Q388H8 entry or part of it): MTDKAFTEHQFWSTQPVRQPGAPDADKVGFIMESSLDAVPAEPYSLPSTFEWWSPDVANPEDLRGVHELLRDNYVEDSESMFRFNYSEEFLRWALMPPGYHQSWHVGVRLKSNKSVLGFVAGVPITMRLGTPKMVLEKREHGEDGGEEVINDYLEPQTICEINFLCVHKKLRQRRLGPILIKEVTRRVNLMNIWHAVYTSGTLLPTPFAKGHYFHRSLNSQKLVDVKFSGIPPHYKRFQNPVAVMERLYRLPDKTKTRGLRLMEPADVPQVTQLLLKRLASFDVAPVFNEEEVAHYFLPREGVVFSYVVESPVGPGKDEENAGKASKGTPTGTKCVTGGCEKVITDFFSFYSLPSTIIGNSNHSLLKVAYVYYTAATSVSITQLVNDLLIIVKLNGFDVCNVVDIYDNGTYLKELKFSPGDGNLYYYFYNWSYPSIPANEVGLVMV

In general, IC50 refers to the midpoint of a concentration-inhibition curve. Low readings indicate greater potency in that assay, high ones weaker potency in that assay. In the case of `Cc1nn(C)c(C)c1CCOc1cc(F)ccc1-c1ccc2[nH]nc(CN(C)C)c2c1` [Example 7], the IC50 was in the range of 1 to 100 nM.
